Laboratory results reported in patent US5593984A, “Cephalosporin derivatives” (Yuhan Corporation, priority 1992, dated 1997).
Values after ≈ are worked out from the molar mass of the structure shown.

Assays:
Format in all cases: cell-based
Prov. stuartii IFO 12930 = assay: MIC by agar dilution, Prov. stuartii IFO 12930; details: Providencia stuartii, IFO12930, 17 h, Mueller-Hinton agar, read-out: Minimal Inhibitory Concentration (MIC)
Method in brief: (§1)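 Agar dilution in Mueller-Hinton agar with two-fold compound dilutions. Each strain is inoculated at 10^6 CFU per ml and incubated at 35°-37° C. for 17±1 hours. Ceftazidime and cefotaxime serve as controls.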

Ent. aerogenes IFO 12979 = assay: MIC by agar dilution, Ent. aerogenes IFO 12979; details: Klebsiella aerogenes, IFO12979, 17 h, Mueller-Hinton agar, read-out: Minimal Inhibitory Concentration (MIC)
Method in brief: as §1

Ps. aeruginosa DY-2 = assay: MIC by agar dilution, Ps. aeruginosa DY-2; details: Pseudomonas aeruginosa, DY2, 17 h; Ps. aeruginosa DY-2; agar dilution, Mueller-Hinton agar; read-out: Minimal Inhibitory Concentration (MIC)
Method in brief: as §1

B. subtilis ATCC 6633 = assay: MIC by agar dilution, B. subtilis ATCC 6633; details: Bacillus subtilis, ATCC6633, 17 h; B. subtilis ATCC 6633; agar dilution, Mueller-Hinton agar; read-out: Minimal Inhibitory Concentration (MIC)
Method in brief: as §1

Ent. cloacae IFO 13535 = assay: MIC by agar dilution, Ent. cloacae IFO 13535; details: Enterobacter cloacae, IFO13535, 17 h; Ent. cloacae IFO 13535; agar dilution, Mueller-Hinton agar; read-out: Minimal Inhibitory Concentration (MIC)
Method in brief: as §1

P. vulgaris NCTC 8313 = assay: MIC by agar dilution, P. vulgaris NCTC 8313; details: Proteus vulgaris, NCTC8313, 17 h; P. vulgaris NCTC 8313; agar dilution, Mueller-Hinton agar; read-out: Minimal Inhibitory Concentration (MIC)
Method in brief: as §1

[1] = test system: S. epidermidis ATCC 12228; assay: MIC by agar dilution, S. epidermidis ATCC 12228; details: Staphylococcus epidermidis, ATCC12228, 17 h; S. epidermidis ATCC 12228; agar dilution, Mueller-Hinton agar; read-out: Minimal Inhibitory Concentration (MIC)
Method in brief: as §1

[2] = test system: Ps. aeruginosa ATCC 10145; assay: MIC by agar dilution, Ps. aeruginosa ATCC 10145; details: Pseudomonas aeruginosa, ATCC10145, 17 h, Mueller-Hinton agar, read-out: Minimal Inhibitory Concentration (MIC)
Method in brief: as §1

[3] = test system: Ps. aeruginosa NCTC 10490; assay: MIC by agar dilution, Ps. aeruginosa NCTC 10490; details: Pseudomonas aeruginosa, NCTC10490, 17 h, Mueller-Hinton agar, read-out: Minimal Inhibitory Concentration (MIC)
Method in brief: as §1

[4] = test system: Ser. marcescens IFO 12648; assay: MIC by agar dilution, Ser. marcescens IFO 12648; details: Serratia marcescens, IFO12648, 17 h; Ser. marcescens IFO 12648; agar dilution, Mueller-Hinton agar; read-out: Minimal Inhibitory Concentration (MIC)
Method in brief: as §1

Staph. aureus Smith = assay: MIC by agar dilution, Staph. aureus Smith; details: Staphylococcus aureus, 17 h, Mueller-Hinton agar, read-out: Minimal Inhibitory Concentration (MIC)
Method in brief: as §1

E. coli NIHJ JC-2 = assay: MIC by agar dilution, E. coli NIHJ JC-2; details: Escherichia coli, NIHJJC2, 17 h; E. coli NIHJ JC-2; agar dilution, Mueller-Hinton agar; read-out: Minimal Inhibitory Concentration (MIC)
Method in brief: as §1

K. pneumoniae NCTC 9632 = assay: MIC by agar dilution, K. pneumoniae NCTC 9632; details: Klebsiella pneumoniae, NCTC9632, 17 h; K. pneumoniae NCTC 9632; agar dilution, Mueller-Hinton agar; read-out: Minimal Inhibitory Concentration (MIC)
Method in brief: as §1

E. coli No. 29 = assay: MIC by agar dilution, E. coli No. 29; details: Escherichia coli, 17 h; E. coli No. 29; agar dilution, Mueller-Hinton agar; read-out: Minimal Inhibitory Concentration (MIC)
Method in brief: as §1

M. morganii DY-1 = assay: MIC by agar dilution, M. morganii DY-1; details: Morganella morganii, DY1, 17 h; M. morganii DY-1; agar dilution, Mueller-Hinton agar; read-out: Minimal Inhibitory Concentration (MIC)
Method in brief: as §1

E. coli DY-1 = assay: MIC by agar dilution, E. coli DY-1; details: Escherichia coli, DY1, 17 h; E. coli DY-1; agar dilution, Mueller-Hinton agar; read-out: Minimal Inhibitory Concentration (MIC)
Method in brief: as §1

Staph. aureus C-5113 = assay: MIC by agar dilution, Staph. aureus C-5113; details: Staphylococcus aureus, C5113, 17 h, Mueller-Hinton agar, read-out: Minimal Inhibitory Concentration (MIC)
Method in brief: as §1

Staph. aureus ATCC 6538P = assay: MIC by agar dilution, Staph. aureus ATCC 6538P; details: Staphylococcus aureus, ATCC6538P, 17 h; Staph. aureus ATCC 6538P; agar dilution, Mueller-Hinton agar; read-out: Minimal Inhibitory Concentration (MIC)
Method in brief: as §1

Staph. aureus C-57 = assay: MIC by agar dilution, Staph. aureus C-57; details: Staphylococcus aureus, C57, 17 h, Mueller-Hinton agar, read-out: Minimal Inhibitory Concentration (MIC)
Method in brief: as §1

Staph. aureus C-5216 = assay: MIC by agar dilution, Staph. aureus C-5216; details: Staphylococcus aureus, C5216, 17 h, Mueller-Hinton agar, read-out: Minimal Inhibitory Concentration (MIC)
Method in brief: as §1

Row | Structure (SMILES) | MIC (Prov. stuartii IFO 12930) [µg/mL] | MIC (Ent. aerogenes IFO 12979) [µg/mL] | MIC (Ps. aeruginosa DY-2) [µg/mL] | MIC (B. subtilis ATCC 6633) [µg/mL] | MIC (Ent. cloacae IFO 13535) [µg/mL] | MIC (P. vulgaris NCTC 8313) [µg/mL] | MIC [1] [µg/mL] | MIC [2] [µg/mL] | MIC [3] [µg/mL] | MIC [4] [µg/mL] | MIC (Staph. aureus Smith) [µg/mL] | MIC (E. coli NIHJ JC-2) [µg/mL] | MIC (K. pneumoniae NCTC 9632) [µg/mL] | MIC (E. coli No. 29) [µg/mL] | MIC (M. morganii DY-1) [µg/mL] | MIC (E. coli DY-1) [µg/mL] | MIC (Staph. aureus C-5113) [µg/mL] | MIC (Staph. aureus ATCC 6538P) [µg/mL] | MIC (Staph. aureus C-57) [µg/mL] | MIC (Staph. aureus C-5216) [µg/mL]
1 | CCO/N=C(\C(=O)N[C@@H]1C(=O)N2C(C(=O)[O-])=C(C[n+]3ccn4c(C(C)=O)cc(Cl)c4c3)CS[C@H]12)c1csc(N)n1 [Ex. 35, 7-β-[(Z)-2-(2-aminothiazol-4-yl)-2-ethoxyiminoacetamido]-3-(6-acetyl-8-chloropyrrolo[1,2-a]pyrazinium-2-yl)methyl-3-cephem-4-carboxylate] | 0.1 (≈ 0.166 µM) | 0.05 (≈ 0.0828 µM) | 25 (≈ 41.4 µM) | 0.39 (≈ 0.646 µM) | 0.39 (≈ 0.646 µM) | 0.012 (≈ 0.0199 µM) | 0.1 (≈ 0.166 µM) | 6.25 (≈ 10.3 µM) | 3.13 (≈ 5.18 µM) | 0.2 (≈ 0.331 µM) | 1.56 (≈ 2.58 µM) | 0.1 (≈ 0.166 µM) | 0.1 (≈ 0.166 µM) | 0.05 (≈ 0.0828 µM) | 0.2 (≈ 0.331 µM) | 0.025 (≈ 0.0414 µM) | 1.56 (≈ 2.58 µM) | 1.56 (≈ 2.58 µM) | 25 (≈ 41.4 µM) | 1.56 (≈ 2.58 µM)
2 | CO/N=C(\C(=O)N[C@@H]1C(=O)N2C(C(=O)[O-])=C(C[n+]3ccn4c(C(C)C)cc(C(C)C)c4c3)CS[C@H]12)c1csc(N)n1 [Ex. 36, 7-β-[(Z)-2-(2-aminothiazol-4-yl)-2-methoxyiminoacetamido]-3-(6,8-diisopropyl-pyrrolo[1,2-a]pyrazinium-2-yl)methyl-3-cephem-4-carboxylate] | 0.2 (≈ 0.335 µM) | 0.2 (≈ 0.335 µM) | 100 (≈ 167 µM) | 0.2 (≈ 0.335 µM) | 3.13 (≈ 5.24 µM) | 0.05 (≈ 0.0837 µM) | 0.2 (≈ 0.335 µM) | 50 (≈ 83.7 µM) | 25 (≈ 41.8 µM) | 0.78 (≈ 1.3 µM) | 3.13 (≈ 5.24 µM) | 0.78 (≈ 1.3 µM) | 0.78 (≈ 1.3 µM) | 0.2 (≈ 0.335 µM) | 1.56 (≈ 2.61 µM) | 0.1 (≈ 0.167 µM) | 1.56 (≈ 2.61 µM) | 0.39 (≈ 0.652 µM) | 100 (≈ 167 µM) | 6.25 (≈ 10.5 µM)
3 | CCc1c[n+](CC2=C(C(=O)[O-])N3C(=O)[C@@H](NC(=O)/C(=N\OC)c4csc(N)n4)[C@H]3SC2)cc2cccn12 [Ex. 37, 7-β-[(Z)-2-(2-aminothiazol-4-yl)-2-methoxyiminoacetamido]-3-(4-ethylpyrrolo[1,2-a]pyrazinium-2-yl)methyl-3-cephem-4-carboxylate] | 0.012 (≈ 0.0222 µM) | 0.012 (≈ 0.0222 µM) | 6.25 (≈ 11.5 µM) | 0.2 (≈ 0.369 µM) | 0.2 (≈ 0.369 µM) | 0.012 (≈ 0.0222 µM) | 0.2 (≈ 0.369 µM) | 3.13 (≈ 5.78 µM) | 0.78 (≈ 1.44 µM) | 0.012 (≈ 0.0222 µM) | 0.2 (≈ 0.369 µM) | 0.012 (≈ 0.0222 µM) | 0.012 (≈ 0.0222 µM) | ≤ 0.006 | 0.025 (≈ 0.0462 µM) | ≤ 0.006 | 1.56 (≈ 2.88 µM) | 0.1 (≈ 0.185 µM) | 25 (≈ 46.2 µM) | 0.78 (≈ 1.44 µM)
4 | CCO/N=C(\C(=O)N[C@@H]1C(=O)N2C(C(=O)[O-])=C(C[n+]3cc(CC)n4cccc4c3)CS[C@H]12)c1csc(N)n1 [Ex. 38, 7-β-[(Z)-2-(2-aminothiazol-4-yl)-2-ethoxyiminoacetamido]-3-(4-ethylpyrrolo[1,2-a]pyrazinium-2-yl)methyl-3-cephem-4-carboxylate] | 0.05 (≈ 0.09 µM) | 0.025 (≈ 0.045 µM) | 3.13 (≈ 5.63 µM) | 0.2 (≈ 0.36 µM) | 0.2 (≈ 0.36 µM) | 0.012 (≈ 0.0216 µM) | 0.1 (≈ 0.18 µM) | 3.13 (≈ 5.63 µM) | 0.78 (≈ 1.4 µM) | 0.05 (≈ 0.09 µM) | 0.39 (≈ 0.702 µM) | 0.05 (≈ 0.09 µM) | 0.05 (≈ 0.09 µM) | ≤ 0.006 | 0.05 (≈ 0.09 µM) | ≤ 0.006 | 1.56 (≈ 2.81 µM) | 0.2 (≈ 0.36 µM) | 12.5 (≈ 22.5 µM) | 1.56 (≈ 2.81 µM)
